Values of other authors in patent publication US7799530B2, “Genetic polymorphisms associated with cardiovascular disorders and drug response, methods of detection and uses thereof” (Celera Corporation, priority 2005, dated 2010).

Experiments:
[1] = system: acute coronary events and LDL-C in subjects with average cholesterol levels; settings: AFCAPS/TexCAPS; cited from earlier work
rhabdomyolysis = settings: in vivo; cited from earlier work

| SMILES | LDL-C reduction (average) [1] [%] | decrease in events [1] [%] | rhabdomyolysis-related deaths (rhabdomyolysis) |
| --- | --- | --- | --- |
| CC[C@H](C)C(=O)O[C@H]1C[C@@H](C)C=C2C=C[C@H](C)[C@H](CC[C@@H]3C[C@@H](O)CC(=O)O3)[C@H]21 [lovastatin] | 25 | 37 |  |
| COCc1c(C(C)C)nc(C(C)C)c(/C=C/[C@@H](O)C[C@@H](O)CC(=O)O)c1-c1ccc(F)cc1 [cerevastatin] |  |  | relatively high level of rhabdomyolysis-related deaths |
